Test results taken from the NIST ThermoML archive (doi:10.1021/je300873x).
± gives the expanded uncertainty stated by the source.

Test: mn = molality of the nth substance listed, in mol/kg
Details: for surface tension liquid-gas: Pendant drop shape; for electrical conductivity: Liquid, Digital conductivity meter

For `CCCCCCCCCCCCCCCC[N+](C)(CCO)CCO.[Br-]` [hexadecyl- di(2-hydroxyethyl)-methylazanium bromide] + O, the surface tension liquid-gas (298.15 K, m1 = 0.00011) was 64.14 ± 0.58 mN/m, the surface tension liquid-gas (298.15 K, m1 = 0.00021) was 58.32 ± 0.53 mN/m and the surface tension liquid-gas (298.15 K, m1 = 0.00032) was 52.91 ± 0.49 mN/m. The surface tension liquid-gas (298.15 K, m1 = 0.00042) was 47.72 ± 0.45 mN/m, the surface tension liquid-gas (298.15 K, m1 = 0.00053) was 44.77 ± 0.43 mN/m and the surface tension liquid-gas (298.15 K, m1 = 0.00063) was 41.55 ± 0.4 mN/m. For the same compound, the surface tension liquid-gas (298.15 K, m1 = 0.00074) was 38.75 ± 0.38 mN/m, the surface tension liquid-gas (298.15 K, m1 = 0.00079) was 38.7 ± 0.38 mN/m and the surface tension liquid-gas (298.15 K, m1 = 0.00084) was 38.62 ± 0.38 mN/m. It also gave a surface tension liquid-gas (298.15 K, m1 = 0.00089) of 38.55 ± 0.38 mN/m, a surface tension liquid-gas (298.15 K, m1 = 0.00095) of 38.02 ± 0.37 mN/m and a surface tension liquid-gas (298.15 K, m1 = 0.00105) of 38.11 ± 0.37 mN/m. For the same compound, the surface tension liquid-gas (298.15 K, m1 = 0.00116) was 37.87 ± 0.37 mN/m, the surface tension liquid-gas (298.15 K, m1 = 0.00126) was 37.86 ± 0.37 mN/m and the electrical conductivity (298.15 K, m1 = 0.00056) was 0.0055 ± 0.0001 S/m. The electrical conductivity (298.15 K, m1 = 0.00058) was 0.0057 ± 0.0001 S/m, the electrical conductivity (298.15 K, m1 = 0.0006) was 0.0059 ± 0.0001 S/m and the electrical conductivity (298.15 K, m1 = 0.00063) was 0.0062 ± 0.0001 S/m. It also gave an electrical conductivity (298.15 K, m1 = 0.00065) of 0.0064 ± 0.0001 S/m, an electrical conductivity (298.15 K, m1 = 0.00068) of 0.0067 ± 0.0001 S/m and an electrical conductivity (298.15 K, m1 = 0.00072) of 0.0069 ± 0.0001 S/m. For the same compound, the electrical conductivity (298.15 K, m1 = 0.00075) was 0.0072 ± 0.0001 S/m, the electrical conductivity (298.15 K, m1 = 0.00079) was 0.0073 ± 0.0001 S/m and the electrical conductivity (298.15 K, m1 = 0.00084) was 0.0075 ± 0.0001 S/m. For the same compound, the electrical conductivity (298.15 K, m1 = 0.00089) was 0.0077 ± 0.0001 S/m, the electrical conductivity (298.15 K, m1 = 0.00094) was 0.0078 ± 0.0001 S/m and the electrical conductivity (298.15 K, m1 = 0.001) was 0.0081 ± 0.0001 S/m. It also gave an electrical conductivity (298.15 K, m1 = 0.00108) of 0.0083 ± 0.0001 S/m, an electrical conductivity (298.15 K, m1 = 0.00116) of 0.0086 ± 0.0001 S/m and an electrical conductivity (298.15 K, m1 = 0.00126) of 0.0089 ± 0.0001 S/m. The electrical conductivity (298.15 K, m1 = 0.00137) was 0.0092 ± 0.0001 S/m, the electrical conductivity (298.15 K, m1 = 0.00151) was 0.0094 ± 0.0001 S/m and the electrical conductivity (303.15 K, m1 = 0.00032) was 0.0034 ± 0.0001 S/m. The electrical conductivity (303.15 K, m1 = 0.00035) was 0.0038 ± 0.0001 S/m, the electrical conductivity (303.15 K, m1 = 0.00039) was 0.0042 ± 0.0001 S/m and the electrical conductivity (303.15 K, m1 = 0.00043) was 0.0046 ± 0.0001 S/m. It also gave an electrical conductivity (303.15 K, m1 = 0.0005) of 0.0052 ± 0.0001 S/m, an electrical conductivity (303.15 K, m1 = 0.00058) of 0.0061 ± 0.0001 S/m and an electrical conductivity (303.15 K, m1 = 0.00063) of 0.0066 ± 0.0001 S/m. It also gave an electrical conductivity (303.15 K, m1 = 0.00068) of 0.007 ± 0.0001 S/m, an electrical conductivity (303.15 K, m1 = 0.00075) of 0.0075 ± 0.0001 S/m and an electrical conductivity (303.15 K, m1 = 0.00084) of 0.0081 ± 0.0001 S/m. It also gave an electrical conductivity (303.15 K, m1 = 0.00094) of 0.0086 ± 0.0001 S/m, an electrical conductivity (303.15 K, m1 = 0.001) of 0.0088 ± 0.0001 S/m and an electrical conductivity (303.15 K, m1 = 0.00107) of 0.0091 ± 0.0001 S/m. For the same compound, the electrical conductivity (303.15 K, m1 = 0.00116) was 0.0094 ± 0.0001 S/m, the electrical conductivity (303.15 K, m1 = 0.00125) was 0.0097 ± 0.0001 S/m and the electrical conductivity (303.15 K, m1 = 0.00137) was 0.01 ± 0.0001 S/m. The electrical conductivity (303.15 K, m1 = 0.0015) was 0.0105 ± 0.0001 S/m, the electrical conductivity (308.15 K, m1 = 0.00031) was 0.0037 ± 0.0001 S/m and the electrical conductivity (308.15 K, m1 = 0.00035) was 0.004 ± 0.0001 S/m. The electrical conductivity (308.15 K, m1 = 0.00038) was 0.0044 ± 0.0001 S/m, the electrical conductivity (308.15 K, m1 = 0.00043) was 0.0049 ± 0.0001 S/m and the electrical conductivity (308.15 K, m1 = 0.00049) was 0.0057 ± 0.0001 S/m. For the same compound, the electrical conductivity (308.15 K, m1 = 0.00058) was 0.0067 ± 0.0001 S/m, the electrical conductivity (308.15 K, m1 = 0.00063) was 0.0072 ± 0.0001 S/m and the electrical conductivity (308.15 K, m1 = 0.00068) was 0.0078 ± 0.0001 S/m. The electrical conductivity (308.15 K, m1 = 0.00075) was 0.0084 ± 0.0001 S/m, the electrical conductivity (308.15 K, m1 = 0.00083) was 0.009 ± 0.0001 S/m and the electrical conductivity (308.15 K, m1 = 0.00094) was 0.0097 ± 0.0001 S/m. It also gave an electrical conductivity (308.15 K, m1 = 0.001) of 0.01 ± 0.0001 S/m, an electrical conductivity (308.15 K, m1 = 0.00107) of 0.0102 ± 0.0001 S/m and an electrical conductivity (308.15 K, m1 = 0.00116) of 0.0106 ± 0.0001 S/m. It also gave an electrical conductivity (308.15 K, m1 = 0.00125) of 0.0108 ± 0.0001 S/m, an electrical conductivity (308.15 K, m1 = 0.00137) of 0.0112 ± 0.0001 S/m and an electrical conductivity (308.15 K, m1 = 0.0015) of 0.0117 ± 0.0001 S/m. For the same compound, the electrical conductivity (313.15 K, m1 = 0.00058) was 0.0073 ± 0.0001 S/m, the electrical conductivity (313.15 K, m1 = 0.0006) was 0.0075 ± 0.0001 S/m and the electrical conductivity (313.15 K, m1 = 0.00062) was 0.0078 ± 0.0001 S/m. The electrical conductivity (313.15 K, m1 = 0.00065) was 0.0081 ± 0.0001 S/m, the electrical conductivity (313.15 K, m1 = 0.00068) was 0.0084 ± 0.0001 S/m and the electrical conductivity (313.15 K, m1 = 0.00071) was 0.0088 ± 0.0001 S/m. The electrical conductivity (313.15 K, m1 = 0.00075) was 0.009 ± 0.0001 S/m, the electrical conductivity (313.15 K, m1 = 0.00079) was 0.0097 ± 0.0001 S/m and the electrical conductivity (313.15 K, m1 = 0.00083) was 0.0101 ± 0.0001 S/m. It also gave an electrical conductivity (313.15 K, m1 = 0.00088) of 0.0105 ± 0.0001 S/m, an electrical conductivity (313.15 K, m1 = 0.00094) of 0.0109 ± 0.0001 S/m and an electrical conductivity (313.15 K, m1 = 0.001) of 0.0112 ± 0.0001 S/m. It also gave an electrical conductivity (313.15 K, m1 = 0.00107) of 0.0116 ± 0.0001 S/m, an electrical conductivity (313.15 K, m1 = 0.00115) of 0.012 ± 0.0001 S/m and an electrical conductivity (313.15 K, m1 = 0.00125) of 0.0124 ± 0.0001 S/m. It also gave an electrical conductivity (313.15 K, m1 = 0.00136) of 0.0128 ± 0.0001 S/m, an electrical conductivity (313.15 K, m1 = 0.0015) of 0.0133 ± 0.0001 S/m and an electrical conductivity (318.15 K, m1 = 0.00055) of 0.0075 ± 0.0001 S/m. It also gave an electrical conductivity (318.15 K, m1 = 0.00058) of 0.0078 ± 0.0001 S/m, an electrical conductivity (318.15 K, m1 = 0.0006) of 0.008 ± 0.0001 S/m and an electrical conductivity (318.15 K, m1 = 0.00062) of 0.0084 ± 0.0001 S/m. For the same compound, the electrical conductivity (318.15 K, m1 = 0.00065) was 0.0087 ± 0.0001 S/m, the electrical conductivity (318.15 K, m1 = 0.00068) was 0.0091 ± 0.0001 S/m and the electrical conductivity (318.15 K, m1 = 0.00071) was 0.0095 ± 0.0001 S/m. For the same compound, the electrical conductivity (318.15 K, m1 = 0.00075) was 0.0099 ± 0.0001 S/m, the electrical conductivity (318.15 K, m1 = 0.00079) was 0.0105 ± 0.0001 S/m and the electrical conductivity (318.15 K, m1 = 0.00083) was 0.0111 ± 0.0001 S/m. It also gave an electrical conductivity (318.15 K, m1 = 0.00088) of 0.0116 ± 0.0001 S/m, an electrical conductivity (318.15 K, m1 = 0.00093) of 0.0122 ± 0.0001 S/m and an electrical conductivity (318.15 K, m1 = 0.001) of 0.0127 ± 0.0001 S/m. It also gave an electrical conductivity (318.15 K, m1 = 0.00107) of 0.0131 ± 0.0001 S/m, an electrical conductivity (318.15 K, m1 = 0.00115) of 0.0135 ± 0.0001 S/m and an electrical conductivity (318.15 K, m1 = 0.00125) of 0.0139 ± 0.0001 S/m. For the same compound, the electrical conductivity (318.15 K, m1 = 0.00136) was 0.0145 ± 0.0001 S/m, the electrical conductivity (318.15 K, m1 = 0.0015) was 0.0152 ± 0.0001 S/m and the electrical conductivity (323.15 K, m1 = 0.00055) was 0.008 ± 0.0001 S/m. It also gave an electrical conductivity (323.15 K, m1 = 0.00057) of 0.0083 ± 0.0001 S/m, an electrical conductivity (323.15 K, m1 = 0.0006) of 0.0086 ± 0.0001 S/m and an electrical conductivity (323.15 K, m1 = 0.00062) of 0.0089 ± 0.0001 S/m. For the same compound, the electrical conductivity (323.15 K, m1 = 0.00065) was 0.0093 ± 0.0001 S/m, the electrical conductivity (323.15 K, m1 = 0.00068) was 0.0097 ± 0.0001 S/m and the electrical conductivity (323.15 K, m1 = 0.00071) was 0.0101 ± 0.0001 S/m. For the same compound, the electrical conductivity (323.15 K, m1 = 0.00075) was 0.0106 ± 0.0001 S/m, the electrical conductivity (323.15 K, m1 = 0.00079) was 0.0112 ± 0.0001 S/m and the electrical conductivity (323.15 K, m1 = 0.00083) was 0.0117 ± 0.0001 S/m. The electrical conductivity (323.15 K, m1 = 0.00088) was 0.0124 ± 0.0001 S/m, the electrical conductivity (323.15 K, m1 = 0.00093) was 0.0131 ± 0.0001 S/m and the electrical conductivity (323.15 K, m1 = 0.00099) was 0.0137 ± 0.0001 S/m. For the same compound, the electrical conductivity (323.15 K, m1 = 0.00107) was 0.0143 ± 0.0001 S/m, the electrical conductivity (323.15 K, m1 = 0.00115) was 0.0148 ± 0.0001 S/m and the electrical conductivity (323.15 K, m1 = 0.00124) was 0.0154 ± 0.0001 S/m. It also gave an electrical conductivity (323.15 K, m1 = 0.00136) of 0.0161 ± 0.0001 S/m and an electrical conductivity (323.15 K, m1 = 0.00149) of 0.0169 ± 0.0001 S/m.
For `O` [water] + CCCCCCCCCCCC[N+](C)(C)CCO.[Br-], the surface tension liquid-gas (298.15 K, m2 = 0) was 72.17 ± 0.64 mN/m.
`O` [water] + CCCCCCCCCCCC[N+](C)(CCO)CCO.[Br-] showed a surface tension liquid-gas (298.15 K, m2 = 0) of 72.17 ± 0.01 mN/m.
